Counter-ions that a name gives are not always drawn. Like-named read-outs stand apart in the source and are kept apart here.
Columns and labels:
[1] = biological target: T1, SARS-CoV-2 PLpro (nsp3 1564–1878) (Severe acute respiratory syndrome coronavirus 2, UniProt P0DTD1); experiment: biochemical; design: FRET-quenched peptide (Pro3) cleavage by PLpro, 10 min pre-incubation, slope over 20 min, normalised to no-compound control; settings: high concentration screen, read-out: % of control remaining
[2] = biological target: T1, SARS-CoV-2 PLpro (nsp3 1564–1878); experiment: biochemical; design: FRET-quenched peptide (Pro3) cleavage by PLpro, 10 min pre-incubation, slope over 20 min, normalised to no-compound control; settings: low concentration screen, read-out: % of control remaining

What does the source list for `CC(C)Cc1ccc([C@@H](C)C(=O)NS(C)(=O)=O)cc1` [Reparixin]?
remaining activity at 3.75 µM ([1]; Well no.=7277): 99.9%; remaining activity at 3.75 µM ([1]; Well no.=8501): 106%; remaining activity at 1.25 µM ([2]; Well no.=7277): 99.5%; remaining activity at 1.25 µM ([2]; Well no.=8501): 106%

Which results are given for `C[C@H]1O[C@@H](n2cc(F)c(=O)[nH]c2=O)[C@H](O)[C@@H]1O` [Doxifluridine]?
remaining activity at 3.75 µM ([1]; Well no.=1990): 103%; remaining activity at 3.75 µM ([1]; Well no.=8843): 89.3%; remaining activity at 1.25 µM ([2]; Well no.=1990): 101%; remaining activity at 1.25 µM ([2]; Well no.=8843): 96.7%

Which remaining activity at 3.75 µM ([1]; Well no.=2418) does the source give for `CCN(CC)C(=O)c1ccc(Nc2nc(OCC3CCCCC3)c3[nH]cnc3n2)cc1` [Cdk2 Inhibitor IV, NU6140] here?
The remaining activity at 3.75 µM was 94.5%.

And the remaining activity at 1.25 µM ([2]; Well no.=2418)?
Its remaining activity at 1.25 µM is 100%.

Which remaining activity at 3.75 µM ([1]; Well no.=7667) does the source give for `CC(C)(C)NC[C@H](O)COc1nsnc1N1CCOCC1` [(S)-Timolol (Maleate)] here?
The remaining activity at 3.75 µM was 94.8%.

And the remaining activity at 1.25 µM ([2]; Well no.=7667)?
The remaining activity at 1.25 µM was 92.8%.

What does the source list for `CCC(NC(C)C)C(O)c1ccc(O)c2[nH]c(=O)ccc12` (stereo not drawn) [Procaterol.HCl]?
remaining activity at 3.75 µM ([1]; Well no.=1745): 101%; remaining activity at 1.25 µM ([2]; Well no.=1745): 99.6%

For `CCCCOc1ccc(CC(=O)NO)cc1` [Bufexamac], which remaining activity at 3.75 µM ([1]; Well no.=5265) is on record?
The remaining activity at 3.75 µM was 99.5%.

What about the remaining activity at 1.25 µM ([2]; Well no.=5265) of the same compound?
The remaining activity at 1.25 µM was 101%.

Which remaining activity at 3.75 µM ([1]; Well no.=4350) does the source give for `CCCCCC/C=C/CCCCCCCCCC(=O)O` [11(E)-Octadecenoic acid] here?
Its remaining activity at 3.75 µM is 104%.

What about the remaining activity at 1.25 µM ([2]; Well no.=4350) of the same compound?
Its remaining activity at 1.25 µM is 106%.

Which remaining activity at 3.75 µM ([1]; Well no.=3519) does the source give for `COc1ccc(-c2coc3cc(O)cc(O)c3c2=O)cc1` [Biochanin A] here?
The remaining activity at 3.75 µM was 101%.

And the remaining activity at 1.25 µM ([2]; Well no.=3519)?
The remaining activity at 1.25 µM was 103%.

With `Cn1cnc2cc3c(Nc4cccc(Br)c4)ncnc3cc21` [BPIQ-I] as the compound, how does the remaining activity at 3.75 µM ([1]; Well no.=2357) read?
Its remaining activity at 3.75 µM is 99%.

And the remaining activity at 1.25 µM ([2]; Well no.=2357)?
The remaining activity at 1.25 µM was 101%.

With `NC1CCc2cc(O)c(O)cc2C1` (stereo not drawn) [6,7-ADTN hydrobromide] as the compound, how does the remaining activity at 3.75 µM ([1]; Well no.=444) read?
The remaining activity at 3.75 µM was 104%.

And the remaining activity at 1.25 µM ([2]; Well no.=444)?
The remaining activity at 1.25 µM was 101%.

Which remaining activity at 3.75 µM ([1]; Well no.=1627) does the source give for `CN(C)C(=N)NC(=N)N` [Metformin] here?
The remaining activity at 3.75 µM was 103%.

What about the remaining activity at 1.25 µM ([2]; Well no.=1627) of the same compound?
The remaining activity at 1.25 µM was 103%.

Which remaining activity at 3.75 µM ([1]; Well no.=68) does the source give for `O=C(O)[C@@H]1C[C@@H](C(=O)O)N1` (relative stereo) [trans-Azetidine-2,4-dicarboxylic acid] here?
Its remaining activity at 3.75 µM is 103%.

And the remaining activity at 1.25 µM ([2]; Well no.=68)?
The remaining activity at 1.25 µM was 104%.

Which remaining activity at 3.75 µM ([1]; Well no.=2235) does the source give for `CC(=O)OCC(=O)NCCCOc1cccc(CN2CCCCC2)c1` [Roxatidine acetate.HCl] here?
Its remaining activity at 3.75 µM is 101%.

What about the remaining activity at 1.25 µM ([2]; Well no.=2235) of the same compound?
Its remaining activity at 1.25 µM is 97.2%.

What does the source list for `O=C1CCC[C@@H]2[C@H]3CCCN4CCC[C@@H](CN12)[C@@H]34` [Matrine]?
remaining activity at 3.75 µM ([1]; Well no.=3661): 103%; remaining activity at 3.75 µM ([1]; Well no.=8341): 94.7%; remaining activity at 1.25 µM ([2]; Well no.=3661): 101%; remaining activity at 1.25 µM ([2]; Well no.=8341): 100%

With `CCN1CC(CCN2CCOCC2)C(c2ccccc2)(c2ccccc2)C1=O` (stereo not drawn) [Doxapram HCl] as the compound, how does the remaining activity at 3.75 µM ([1]; Well no.=5120) read?
Its remaining activity at 3.75 µM is 96.1%.

What about the remaining activity at 1.25 µM ([2]; Well no.=5120) of the same compound?
The remaining activity at 1.25 µM was 98.8%.

For `Cc1cccc(C)c1NC1=NCCCS1` [Xylazine (hydrochloride)], which remaining activity at 3.75 µM ([1]; Well no.=6847) is on record?
Its remaining activity at 3.75 µM is 95.9%.

What about the remaining activity at 1.25 µM ([2]; Well no.=6847) of the same compound?
Its remaining activity at 1.25 µM is 101%.

For `C[C@@H](O)[C@H]1C(=O)N2C(C(=O)O)=C(S[C@@H]3CN[C@H](C(=O)N(C)C)C3)[C@H](C)[C@H]12` [Meropenem], which remaining activity at 3.75 µM ([1]; Well no.=1973) is on record?
Its remaining activity at 3.75 µM is 103%.

And the remaining activity at 1.25 µM ([2]; Well no.=1973)?
The remaining activity at 1.25 µM was 103%.

Which remaining activity at 3.75 µM ([1]; Well no.=1112) does the source give for `N[C@@H](Cc1ccc(N(CCCl)CCCl)cc1)C(=O)O` [Melphalan] here?
The remaining activity at 3.75 µM was 94.4%.

And the remaining activity at 1.25 µM ([2]; Well no.=1112)?
Its remaining activity at 1.25 µM is 94.4%.

And the remaining activity at 1.25 µM ([2]; Well no.=1953)?
The remaining activity at 1.25 µM was 100%.

With `CN(C)CCN(Cc1ccccc1)c1ccccn1` [Tripelennamine (hydrochloride)] as the compound, how does the remaining activity at 3.75 µM ([1]; Well no.=7663) read?
Its remaining activity at 3.75 µM is 98.8%.

What about the remaining activity at 1.25 µM ([2]; Well no.=7663) of the same compound?
The remaining activity at 1.25 µM was 99.1%.

How did the remaining activity at 3.75 µM ([1]; Well no.=4721) turn out when `CC(C)c1nc(CN(C)C(=O)N[C@H](C(=O)N[C@@H](Cc2ccccc2)C[C@H](O)[C@H](Cc2ccccc2)NC(=O)OCc2cncs2)C(C)C)cs1` [Ritonavir] was run?
Its remaining activity at 3.75 µM is 102%.

And the remaining activity at 1.25 µM ([2]; Well no.=4721)?
Its remaining activity at 1.25 µM is 102%.

For `NC(=O)c1ccc(I)c([N+](=O)[O-])c1` [Iniparib (BSI-201)], which remaining activity at 3.75 µM ([1]; Well no.=5011) is on record?
Its remaining activity at 3.75 µM is 103%.

And the remaining activity at 1.25 µM ([2]; Well no.=5011)?
The remaining activity at 1.25 µM was 103%.

With `O=C(Nc1cc(C(F)(F)F)cc(C(F)(F)F)c1)c1cc(Cl)ccc1O` [IKK-2 Inhibitor V] as the compound, how does the remaining activity at 3.75 µM ([1]; Well no.=2435) read?
Its remaining activity at 3.75 µM is 102%.

And the remaining activity at 1.25 µM ([2]; Well no.=2435)?
The remaining activity at 1.25 µM was 99.8%.

Which remaining activity at 3.75 µM ([1]; Well no.=3286) does the source give for `COc1ccc2c3c([nH]c2c1)C(C)=NCC3` [Harmaline] here?
Its remaining activity at 3.75 µM is 99.1%.

And the remaining activity at 1.25 µM ([2]; Well no.=3286)?
Its remaining activity at 1.25 µM is 99.5%.

Which results are given for `O=C1Nc2ccc(I)cc2/C1=C/c1cc(Br)c(O)c(Br)c1` [GW 5074 - 3-(3,5-Dibromo-4-hydroxy-benzylidene)-5-iodo-1,3-dihydro-indol-2-one]?
remaining activity at 3.75 µM ([1]; Well no.=2392): 101%; remaining activity at 1.25 µM ([2]; Well no.=2392): 97.9%

What does the source list for `CC(C)[C@H]1CN[C@H](C(=O)O)[C@H]1CC(=O)O` [Dihydrokainic acid]?
remaining activity at 3.75 µM ([1]; Well no.=635): 94%; remaining activity at 1.25 µM ([2]; Well no.=635): 93.4%

For `CC(=O)OCC(=O)[C@@]12OC(C)(C)O[C@@H]1C[C@H]1[C@@H]3C[C@H](F)C4=CC(=O)C=C[C@]4(C)[C@@]3(F)[C@@H](O)C[C@@]12C` [Fluocinonide], which remaining activity at 3.75 µM ([1]; Well no.=6805) is on record?
Its remaining activity at 3.75 µM is 99.9%.

What about the remaining activity at 1.25 µM ([2]; Well no.=6805) of the same compound?
The remaining activity at 1.25 µM was 98.5%.

What does the source list for `CC(C)(C)n1nc(-c2ccc(Cl)cc2)c2c(N)ncnc21` [PP 2 - 3-(4-chlorophenyl) 1-(1,1-dimethylethyl)-1H-pyrazolo[3,4-d]pyrimidin-4-amine]?
remaining activity at 3.75 µM ([1]; Well no.=2428): 101%; remaining activity at 1.25 µM ([2]; Well no.=2428): 98.1%

`CCCOc1cc2c(cc1\C(C)=C/C=C/C(C)=C/C(=O)O)C(C)(C)CCC2(C)C` [(2E,4E,6Z)-3-methyl-7-(5,5,8,8-tetramethyl-3-propoxy-5,6,7,8-tetrahydro-2-naphthalenyl)-2,4,6-octatrienoic acid] was tested. Which remaining activity at 3.75 µM ([1]; Well no.=6004) did it give?
The remaining activity at 3.75 µM was 93%.

What about the remaining activity at 1.25 µM ([2]; Well no.=6004) of the same compound?
The remaining activity at 1.25 µM was 92.7%.

For `O=C(CCCc1ccc(-c2ccccc2F)cc1)Nc1ccc(O)cc1` [MK2a Inhibitor], which remaining activity at 3.75 µM ([1]; Well no.=2548) is on record?
The remaining activity at 3.75 µM was 102%.

And the remaining activity at 1.25 µM ([2]; Well no.=2548)?
The remaining activity at 1.25 µM was 94.2%.

Which remaining activity at 3.75 µM ([1]; Well no.=7141) does the source give for `COCCOc1ccc(N2CCN(CCn3ncc4c3nc(N)n3nc(-c5ccco5)nc43)CC2)cc1` [Preladenant] here?
The remaining activity at 3.75 µM was 102%.

And the remaining activity at 1.25 µM ([2]; Well no.=7141)?
Its remaining activity at 1.25 µM is 102%.

What does the source list for `COc1ccc(CCN(C)CCc2ccc(OC)c(OC)c2)cc1OC` [YS-035 hydrochloride]?
remaining activity at 3.75 µM ([1]; Well no.=1246): 102%; remaining activity at 1.25 µM ([2]; Well no.=1246): 103%

With `CCCCCCCCCCCC1N[C@H](C(=O)O)CS1` (stereo partly drawn) [(4R) - 2-Undecyl-4-thiazolidinecarboxylic acid] as the compound, how does the remaining activity at 3.75 µM ([1]; Well no.=5484) read?
The remaining activity at 3.75 µM was 106%.

And the remaining activity at 1.25 µM ([2]; Well no.=5484)?
Its remaining activity at 1.25 µM is 104%.

For `CC(=O)Nc1cccc2c1c(Sc1ccc(Cl)cc1)c(C)n2CC(=O)O` [AZD1981], which remaining activity at 3.75 µM ([1]; Well no.=7131) is on record?
Its remaining activity at 3.75 µM is 95.7%.

What about the remaining activity at 1.25 µM ([2]; Well no.=7131) of the same compound?
The remaining activity at 1.25 µM was 98.7%.

For `C/C1=C/CCC(C)(O)/C=C\C(C(C)C)C(OC(=O)c2ccc(O)cc2)C1` (stereo not drawn) [Feroline], which remaining activity at 3.75 µM ([1]; Well no.=3493) is on record?
Its remaining activity at 3.75 µM is 99.5%.

And the remaining activity at 1.25 µM ([2]; Well no.=3493)?
Its remaining activity at 1.25 µM is 101%.
